The results in this text go back to patent US10968214B2, “KRas G12C inhibitors” (Eli Lilly and Company, priority 2018, dated 2021).

Where two headings read alike, the source gives them in different places.

Test [1] deals with Miapaca-2. In words: CellTiterGlo Cell Proliferation Assay, Miapaca-2. Type of test: cell-based. Particulars: Homo sapiens, MIA PaCa-2, KRas G12C, Pancreas, 96 hr. Here is the method: (§1) A panel of tumor cell lines harboring KRas G12C or other KRas mutations are collected (Table 6). All cell lines are from ATCC or other sources indicated.
(§2) Typically cells are cultured in RPMI1640 or Dulbecco's modified Eagle's medium (DMEM, GIBCO) supplemented with 10% FBS (GIBCO, Invitrogen). For 2D culture cells (4×10^3/well) maintained in growth medium described above, are plated onto 96 well tissue culture plates Corning® Cat. 3603) a day before the treatment. For 3D culture 8000 cells/well are seeded onto 96 well ultra-low attachment tissue culture plates (Corning, #3474). The cells are treated compound for 96 hr, and then are analyzed for viability using the CellTiterGlo® Luminescent Cell Viability Assay® (Promega #G7572 for 2D and Promega #G9683 for 3D cultures) according to manufacturer's instructions and an EnVision™ plate reader. Nonlinear regression and sigmoidal dose-response curves are used to calculate the half maximal inhibitory concentration (IC50) with GraphPad Prism 4® software.

Test [2] concerns Kyse-410. In words: CellTiterGlo Cell Proliferation Assay, Kyse-410. Type of test: cell-based. The settings on record: Homo sapiens, KRas G12C, Esophagus, 96 hr. The method, then: as §1, §2
Test [3] deals with CT-26-H4/KRas G12C. Description: CT-26-H4/KRas G12C mouse syngeneic model, immuno-therapy combination. Type of test: in vivo. Particulars: Example 1 30 mg/kg BID × 21 PO, PD-L1 antibody 500 ug/mouse Q7D × 3 IP, PD-1 antibody 250 ug/mouse BIW × 3 IP. The source says: A mouse syngeneic model is used to evaluate the effects of KRas G12C inhibition and immuno-therapy combination. In this model, the KRas G12D mutation is converted to KRas G12C mutation by CRISPR knock-in in the CT-26 cell line, a mouse colorectal tumor cell line. The KRas G12C knock-in is confirmed by genetic and functional characterization. The engineered cell line is named CT-26-H4/KRas G12C. These cells are implanted to the Balb/c mice, and the compound treatment is started 6 days post tumor cell implantation. PD-1 and PD-L1 inhibitors are known in the art and include durvalumab, pembrolizumab, and nivolumab. […] After 3 weeks, compound treatment is stopped and all tumors in monotherapy groups with the exception of 1 animal in the anti-PD-1 group started to regrow. However, the tumors in the two combination groups have no signs of regrowth.

For test [4], the system named is HCC-44. Description: CellTiterGlo Cell Proliferation Assay, HCC-44. In kind it is cell-based. Particulars: Homo sapiens, HCC44, KRas G12C, Lung, 96 hr, read-out: IC50 (μM) in 2 D cell proliferation. The method, then:
as §1, §2

The test system of test [5] is pERK in H2122 xenograft tumors. Description: In vivo target inhibition/PD, H2122 xenograft, pERK. The settings on record: Mus musculus, NCI-H2122; for inhibition at 10 mg/kg: 10 mg/kg single dose. The method, then:
To evaluate in vivo target inhibition and anti-tumor efficacy of a compound, Human lung cancer cells, H358 or H2122 are implanted into nude mice xenograft tumor models. Either H358 or H2122 cells (10×10^6 in a 1:1 Matrigel® mix, 0.2 mL total volume) are implanted by subcutaneous injection in hind leg of nude female mice (Harlan Laboratories). A total of 5 mice each group are used for efficacy study, and a total of 3-4 mice each group are used for target engagement and PD study. Treatment is initiated with oral administration (gavage) of a test compound or vehicle (20% Captisol®, 25 mM phosphate, pH 2.0 in 0.2 mL volume when the tumor size reaches approximately […]. Tumor growth and body weight are monitored over time to evaluate efficacy and signs of toxicity. Bidimensional measurements of tumors are performed twice a week and tumor volumes are calculated based on mid-axis length and mid-axis width. Tumor volume data are transformed to a log scale to equalize variance across time and treatment groups. The log volume data are analyzed with a two-way repeated measures analysis of variance by time and treatment using the mixed procedures in SAS software (version 8.2). The correlation model for the repeated measures is spatial power. Treated groups are compared to the control group at each time point. The mixed procedure is also used separately for each treatment group to calculate adjusted means and standard errors at each time point. Both analyses account for the autocorrelation within each animal. The adjusted means and standard errors are plotted for each treatment group versus time.
For in vivo target inhibition and PD analysis, tumors are ground by mortar and pestle on dry ice and tumor fragments are added to 800 μL of lysis buffer containing 1% Triton X100, 25 mM Tris pH 7.5, 150 mM NaCl, 1 mM EDTA, and 1 mM EGTA with Halt protease and phosphatase inhibitor cocktail (Thermo Scientific, cat. no. 1861281) in lysing matrix D tubes (MP Biomedical®, cat. no. 6913-500) with one additional large bead (MP Biomedical® ¼″ ceramic sphere bead cat. no. 6540-412) per tube. Tumor fragments are homogenized in a Thermo Bio101® fast prep (FP120) at setting 4 for […] while cold for a total of 2 times. Lysates are spun at 14,000 rpm for 10 min at 4° C. to clarify. Protein estimation is done on the lysate supernatant using a BioRad Dc® protein assay and lysates are diluted in complete lysis/binding buffer from the Ras GTPase Chemi ELISA Kit® (Active Motif, cat. no. 52097). The active KRas ELISA was performed as follows: Glutathione-coated ELISA wells were incubated with diluted RAF1-GST in complete lysis/binding buffer for 1 hr at 4° C. with gentle agitation. Wells are washed 3 times with wash buffer and 100 μg of lysates are added to each well and incubated at RT for 1 hr with mild agitation. The wells are washed an additional 3 times, then primary antibody, diluted in antibody binding buffer, is added to each well. The plates are incubated for 1 hr. The wells are washed 3 more times before adding HRP-conjugated secondary antibody, diluted in antibody binding buffer, to each well. The plates are incubated at RT for 1 hr. ELISA wells are washed 4 times, chemiluminescent reagents is added and then luminescence is read. For pERK Meso Scale Discovery ELISA, 25 μg of protein containing 0.1% SDS is used; for pMEK Meso Scale Discovery ELISA, 50 μg of protein without SDS is used. Meso Scale Discovery Whole Cell Lysate Kits for pERK and pMEK are provided by Meso Scale Discovery.
After a single dose, the tumor samples are harvested at different time points. The tumor lysates are prepared as described above. The inhibition of pERK, pMEK, and active KRas is measured as described above.

Where [6] appears, read: read-out: IC50 (μM) in 2 D cell proliferation.
Where [7] appears, read: read-out: IC50 (μM) in 3 D spheroid cell proliferation.

A word on the inhibition: it is the change of the read-out against control, counted positive when it falls.

`C=CC(=O)N1CCN(c2ncnc3c(F)c(-c4ccc(F)c5sc(N)nc45)c(Cl)cc23)CC1` [Example 1, 1-{4-[7-(2-Amino-7-fluoro-1,3-benzothiazol-4-yl)-6-chloro-8-fluoroquinazolin-4-yl]piperazin-1-yl}prop-2-en-1-one]: the IC50 in test [1] (setting [6]) was found to be 0.014 µM; in test [1] (setting [7]) it was 0.086 µM; in test [2] (setting [6]) it was 2.94 µM; in test [2] (setting [7]), 0.471 µM; in test [4] it was 0.221 µM. The entries for the “Complete Response (% CR)” value in test [3] (40 days post treatment) and in test [3] (End of treatment at day 28) were 0% and 10%, respectively. Further, the “Complete Response (CR)/group mice” value in test [3] (40 days post treatment) was 0/10; in test [3] (End of treatment at day 28), 1/10. The “% Tumor Growth Inhibition” value in test [3] (End of treatment at day 28) is 96%. In addition, the inhibition at 10 mg/kg was 46.8% in test [5] (H2122 xenograft, 2 hr, read-out: % Inhibition pERK); 47% in test [5] (H2122 xenograft, 4 hr, read-out: % Inhibition pERK); 34.5% in test [5] (H2122 xenograft, 8 hr, read-out: % Inhibition pERK); 7.2% in test [5] (H2122 xenograft, 12 hr, read-out: % Inhibition pERK); -2.8% in test [5] (H2122 xenograft, 24 hr, read-out: % Inhibition pERK); 7 to 47% in test [5] (H2122 xenograft, from 2-12 hr, read-out: pERK inhibition). The inhibition at 30 mg/kg in test [5] (H2122 xenograft, 30 mg/kg single dose, 2 hr, read-out: % Inhibition pERK) is 75.6%; in test [5] (H2122 xenograft, 30 mg/kg single dose, 4 hr, read-out: % Inhibition pERK), 75.3%; in test [5] (H2122 xenograft, 30 mg/kg single dose, 8 hr, read-out: % Inhibition pERK) it was 67.4%; in test [5] (H2122 xenograft, 30 mg/kg single dose, 12 hr, read-out: % Inhibition pERK) it was 48.8%; in test [5] (H2122 xenograft, 30 mg/kg single dose, 24 hr, read-out: % Inhibition pERK) it was 20.4%; in test [5] (read-out: pERK inhibition), 49 to 76%. The inhibition at 100 mg/kg in test [5] (H2122 xenograft, 100 mg/kg single dose, 4 hr) came to 79.1%.
